Test results taken from patent publication US10828253B2, “Composition for injection” (HK INNO.N CORPORATION, priority 2017, dated 2020).

Assay: water solubility of the compound of Formula 1
Assay type: physicochemical
Description: However, the compound has a very low water solubility (0.02 mg/ml, pH 6.8), which increases (0.7 mg/ml, pH 3.0) under acid conditions, but not enough to have a significant effect. It is water insoluble and has a very low solubility, in particular, under neutral or higher pH environments, so it has a much difficulty in being formulated into preparations through its dissolution and stabilization in aqueous solutions. Also, its degradation products are increased under acid conditions, thus leading to poor stability and causing a restriction on selection of salts. Furthermore, in case of using solubilizers such as surfactants, etc., to improve the solubility, it requires an excessive amount of excipients, thus causing difficulty.

solubility (aqueous buffer, pH 3.0, acid conditions): 700 µg/mL
solubility (pH 6.8, aqueous buffer): 20 µg/mL
Structure (SMILES): Cc1nc2c(O[C@H]3CCOc4cc(F)cc(F)c43)cc(C(=O)N(C)C)cc2[nH]1 [Formula 1, (S)-4-((5,7-difluorochroman-4-yl)oxy)-N,N-2-trimethyl-1H-benzo[d]imidazole-6-carboxamide]
